Here are results for 7 compounds from patent publication US9981983B2, “Thienopyranones as kinase inhibitors” (SignalRx Pharmaceuticals, Inc., priority 2008, dated 2018).

Data set [1] deals with pAKT serine 473 level in PC3 cells. Put plainly: pAKT status in IGF-1 stimulated PC3 cells (Ser473 pAKT ELISA). The following applies: Homo sapiens, PC-3. It is filed as cell-based. How it is done:
(§1) PC3 cells were obtained from the American Type Culture Collection (ATCC, Manassas, Va., Cat.# CRL-1435). Two million cells from the prostate cancer line PC3 were placed into 6 cm culture dishes and allowed to grow in complete RPMI 1640 media (Invitrogen, Carlsbad, Calif., Cat.#22400-105) with 10% fetal bovine serum (Invitrogen, Carlsbad, Calif., Cat.#10438-026). After this time period the cells were serum starved for 5 hours followed by application of the test compound. Test compound was added as a DMSO (dimethyl sulfoxide) solution such that the final DMSO concentration in the cell media was less than or equal to 0.2% by volume After 30 minutes of exposure the growth factor stimulant, human IGF-1 (PeproTech, Inc., Rocky Hill, N.J., Cat.#100-11), was added to a final concentration of 0.1 μg/ml in each well. After 30 minutes of IGF-1 exposure, cells were removed from the media and cell lysates were prepared using RIPA Lysis buffer (Upstate, Lake Placid, N.Y., Cat.#20-188), keeping on ice. The pAKT serine 473 level was measured in duplicate samples of the cell lysates using commercially available assays such as the Pathscan® Sandwich ELISA kit for Ser473 pAKT (Cell Signaling, Danvers, Mass., Cat.#7160). A SpectraMax Plus spectrophotometric plate reader (Molecular Devices, Sunnydale, Calif.) was used to measure the optical density signal for pAKT at 450 nm (OD450 nm). The pAKT OD450 nm readings were normalized by total protein amount in the cell lysates determined by standard methods.
(§2) Concentrations of test compounds required to inhibit IGF stimulated pAKT levels to 50% of maximum levels in PC3 cells (termed DM50 for decreased maximum 50%) were calculated by inputting the dose responses in the software package GraphPad Prism4 (GraphPad Software, Inc., San Diego, Calif.).
By these methods a number of compounds of the invention were evaluated and the concentration needed to reduce the detectable pAKT to 50% of the maximal uninhibited signal was calculated. These values (in μMolar units) are listed in Table 8 under the column heading PC3 pAKT IC50 (μMolar).
In general terms: An ELISA detects its analyte on a solid surface through an enzyme-linked reagent.

In data set [2] the test system is PC3 cells. Kind of data set: PC3 prostate cancer cell proliferation (WST). It is filed as cell-based. The following applies: Homo sapiens, PC-3. The method, then: (§3) PC3 cells were obtained from the American Type Culture Collection (ATCC, Manassas, Va., Cat.# CRL-1435) Two thousand cells from the prostate cancer line PC3 were placed in 50 μL of complete RPMI 1640 media (Invitrogen, Carlsbad, Calif., Cat.#22400-105) with 10% fetal bovine serum (Invitrogen, Carlsbad, Calif., Cat.#10438-026) into each well of 96 well cell culture plates in a hexaplicate sampling pattern. A 50 μL aliquot of test compound (prepared from stock test compounds in DMSO diluted into media) was added to the appropriate well such that the final concentrations of test compound were 200, 40, 8, 1.6, 0.32, 0.064, 0.0128, 0.00256, and 0 μM and the final DMSO concentration was less than or equal to 0.2%.
(§4) The plates were incubated for 72 hours 37° C. in an atmosphere of 5% CO2. At the end of this time a 10 μL aliquot of WST solution (Roche Applied Science, Mannheim, Germany) was added into each of the wells. Cells were exposed to the WST solution for 4 hours. A SpectraMax Plus spectrophotometric plate reader (Molecular Devices, Sunnydale, Calif.) was then used to measure the optical density at 450 nm (OD450 nm). Sigmoidal curves were drawn for the dose responses and IC50 values were calculated using the software package GraphPad Prism4 (GraphPad Software, Inc., San Diego, Calif.).

Data set [3] has as its system PI-3 kinases. The following applies: Vlahos et al. J. Biol. Chem. 1994; cited from earlier work.
The target of data set [4] is mTOR (Homo sapiens, UniProt P42345). Put plainly: mTOR inhibition. It is filed as biochemical.
Data set [5] concerns 786-0 renal cell carcinoma xenograft. Kind of data set: 786-0 renal cell carcinoma xenograft mouse model. The class given is in vivo, nude mice. The following applies: 25 mg/kg, ip. The method, then: To determine if Cpd 9 has anti-tumor effects, an in vivo study was conducted in a 786-0 renal cell carcinoma xenograft model, 786-0 cells (2×10^6) were inoculated subcutaneously into nude mice in the flank area and tumor growth was monitored with calipers via external measurements. Tumor volume was calculated using the formula volume=(length×width^2)/2. When the average tumor volume reached 400 mm^3, mice were randomly divided into 2 groups and treated with either DMSO (control) or Cpd 9 (25 mg/kg, ip) three times weekly (M, W, F) for two weeks.
To determine if Cpd 28 has anti-tumor effects, an in vivo study was conducted in a 786-0 renal cell carcinoma xenograft model, 786-0 cells (2×10^6) were inoculated subcutaneously into nude mice in the flank area and tumor growth was monitored with calipers via external measurements. Tumor volume was calculated using the formula volume=(length×width^2)/2. Treatment was started when tumors reached an average volume of 300 mm^3. […] DMSO was used as control since this was the vehicle the compounds were dissolved in. Tumor size was monitored twice weekly and body weight was monitored once weekly. Means and standard deviations were calculated and the Student t test method was used for statistical comparisons.

Data set [6] concerns 786-0 cells. Kind of data set: Apoptosis in 786-0 cells (Annexin V / PI flow cytometry). The following applies: overnight. The class given is cell-based. Also on record: unit not given here. How it is done:
In order to evaluate the mechanism of action of these compounds, 786-0 cell cultures were treated with Cpd 9 or Cpd 28 at different concentrations overnight and then analyzed for apoptotic induction. The cells were stained using standard methods with Annexin V and/or Propedium iodine (PI) at room temperature for 15 minutes. Apoptotic cells at early (Annexin V positive) or late stage (both Annexin V and PI positive) were detected by Flow Cytometry.

The subject of data set [7] is H1299 cells. Put plainly: Cellular proliferation (Example B method), H1299. It is filed as cell-based. As to conditions: Homo sapiens, NCI-H1299; H1299, non-small cell lung cancer. The method, then: as §3, §4
(§5) Several other cancer cell lines were obtained from ATCC and grown according to their recommendations and treated with test compounds to obtain the concentration of test compound that inhibited the cellular proliferation by 50% of no-treatment controls. These IC50 values (μM) are listed in Table 7 below obtained by the methods described in Example B: […]

Data set [8] relates to BT-474 cells. Kind of data set: Cellular proliferation (Example B method), BT-474. The class given is cell-based. As to conditions: Homo sapiens; BT-474, breast cancer. The method, then:
as §3, §4, §5

Data set [9] has as its system pAKT in BT-474 cells. Kind of data set: pAKT status DM50, BT-474. The class given is cell-based. The following applies: Homo sapiens; BT-474, breast cancer. How it is done: as §1, §2
(§6) Several other cancer cell lines were obtained from ATCC and grown according to the supplier's recommendations and treated with test compounds. DM50 values listed in Table 6 below were obtained by the methods described in Example A: […]

For data set [10], the system named is pAKT in H1299 cells. Kind of data set: pAKT status DM50, H1299. The class given is cell-based. As to conditions: Homo sapiens, NCI-H1299; H1299, non-small cell lung cancer. How it is done: as §1, §2, §6
Data set [11] concerns pAKT in 786-O cells. Kind of data set: pAKT status DM50, 786-O. The class given is cell-based. As to conditions: Homo sapiens, 786-0, renal cell carcinoma. How it is done:
as §1, §2, §6

Data set [12] concerns 786-O cells. Kind of data set: Cellular proliferation (Example B method), 786-O. The following applies: Homo sapiens, 786-0, renal cell carcinoma. The class given is cell-based. How it is done:
as §3, §4, §5

Data set [13] concerns MCF7 breast cancer cells. Put plainly: Mammosphere cancer stem cell inhibition assay. The class given is cell-based. The following applies: 1 μM. The method, then:
A mammosphere cancer stem cell inhibition assay was set up using literature methods (T. M. Phillips et al. J. Natl. Cancer I. 2006, 98, 1777-1785, “Mammalian target of rapamycin contributes to the acquired apoptotic resistance of human mesothelioma multicellular spheroids”) using a subset of MCF7 breast cancer cells that posses the ability to evade anchorage independent apoptosis. Commercially available MCF7 breast cancer cells were cultured in MEM supplemented with 0.01 mg/mL of bovine insulin and 10% FBS at 37° C. in humidified atmosphere (5% CO2). Floating cells in the 2-day cultures were collected, washed, and resuspended in DMEM-F12 (50:50) supplemented with 0.4% BSA, 5 μg/mL bovine insulin, 20 ng/mL bFGF, and 10 ng/mL EGF. Cells were then passed through a […] sieve to remove any cell clusters and adjusted to a density of 10,000 cells/mL. Approximately 500 cells were plated in quadruplicate in a sterile poly-HEMA-treated 96-well plate. Cells were then treated with either control or test solutions consisting of the kinase inhibitor Lapatinib (1 μM), Cpd 28 (1 or 10 μM), Cpd 55 (1 or 10 μM), The numbers of mammospheres (clusters of cells numbering more than 4 or 5 per cluster) were then counted after 5-7 days.

The test system of data set [14] is breast cancer stem cells. The following applies: women with breast tumors with high HER2; decreased from 11%; cited from earlier work.
Where [15] appears, read: IGF-1 stimulated PC3 cells, read-out: PC3 pAKT IC50.
Where [16] appears, read: 72 hours, read-out: IC50 PC3 Proliferation.
[17] abbreviates: PC3 cells, read-out: IC50 pAKT (Pathway Inhibition).

Structures are written as SMILES. Read-outs that look alike come from different tables or passages of the source.

Turning to `Nc1cccc(-c2csc3c(=O)cc(N4CCOCC4)oc23)c1` [Compound 11], the IC50 amounted to 6.32 µM in [1] (setting [15]) and 6.29 µM in [2] (setting [16]).
Regarding `O=c1cc(N2CCOCC2)oc2c(-c3ccccc3)cccc12` [LY294002, 2-morpholino-8-phenyl-4H-chromen-4-one, reference compound], the IC50 was 1.3 µM in data set [1] (setting [17]); 7.5 to 12.1 µM in data set [2] (PC3 cells, read-out: PC3 IC50 Proliferation); 1.4 µM in [3]; 1.06 µM in [4]. The “tumor growth inhibition compared to control” value in data set [5] (3×/wk for 4 weeks) is 54%.
For the compound `CS(=O)(=O)c1ccc(-c2csc3c(=O)cc(N4CCOCC4)oc23)cc1` [Compound 13], the IC50 in data set [1] (setting [15]) was 5.29 µM; in data set [2] (setting [16]), 15.3 µM.
`COc1ccc(C#Cc2csc3c(=O)cc(N4CCOCC4)oc23)cc1` [Compound 38]: the IC50 is 0.363 µM in data set [1] (setting [15]) and 8.42 µM in [2] (setting [16]).
In the case of `CN(C)c1ccc(-c2csc3c(=O)cc(N4CCOCC4)oc23)cc1` [Compound 9], the “Early stage apoptotic cells” value in data set [6] (5 μM) amounted to 7.76; in [6] (10 μM) it was 8.31. Moreover, the “Late stage apoptotic cells” value in [6] (5 μM) stood at 10.5; in [6] (10 μM), 11.62. Also, the “Total Apoptotic Cells” value was determined as 18.26 in [6] (5 μM) and 19.93 in data set [6] (10 μM). In addition, the IC50 in data set [7] stood at 3.04 µM; in data set [2] (setting [16]), 2.01 µM; in data set [8], 5.91 µM; in [9], 0.906 µM; in [10], 3.07 µM; in data set [11], 2.66 µM. Also, in data set [12], the IC50 worked out at 6.24 µM. Moreover, in data set [5] (3×/wk, about two weeks, p<0.05), the “tumor growth reduction compared to control” value amounted to 93%. In addition, in data set [5] (3×/wk, two weeks), the “body weight change or other abnormalities” value is listed as “No significant body weight change or other abnormalities were observed”.
For `O=c1cc(N2CCOCC2)oc2c(-c3ccccc3)csc12` [Compound 6, 5-morpholino-3-phenyl-7H-thieno[3,2-b]pyran-7-one], the IC50 worked out at 0.55 µM in data set [1] (setting [15]); 0.55 µM in data set [1] (setting [17]); 5.02 µM in data set [7]; 11.6 µM in data set [8]; 1.25 µM in data set [9]; 3.19 µM in data set [10]. The IC50 came to 4.17 µM in data set [11], 0.61 µM in data set [4] and 9.53 µM in data set [12].
Consider `CS(=O)(=O)CCNCc1ccc(-c2ccc3ncnc(Nc4ccc(OCc5cccc(F)c5)c(Cl)c4)c3c2)o1` [Lapatinib, reference compound], for which the “inhibition of mammosphere production versus control” value was determined as 33% in data set [13] (first experiment) and 55% in data set [13] (separate experiment). The number of mammospheres in data set [13] (first experiment, control 38±4) stood at 26±2 mammospheres; in data set [13] (separate experiment, control 32±6), 17±4 mammospheres. Besides, in data set [14], the “breast cancer stem cells in biopsies” value is 5 % of cells.
